Measurements reported in US9738655B2, “Tetrahydroisoquinolines containing substituted azoles as factor XIa inhibitors” (BRISTOL-MYERS SQUIBB COMPANY, priority 2013, dated 2017).
Structures can show the parent of a compound that is named as a salt. Where two headings read alike, the source gives them in different places.

Assays:
[1] = molecular target: purified human Factor XIa (Homo sapiens (Human), UniProt P03951); assay: Factor XIa enzyme inhibition assay (chromogenic substrate S-2366)
[2] = molecular target: purified human plasma kallikrein (Homo sapiens (Human), UniProt P03952); assay: Plasma kallikrein enzyme inhibition assay (chromogenic substrate S-2302); format: biochemical
purified human plasma kallikrein, sequence (P03952 391-638): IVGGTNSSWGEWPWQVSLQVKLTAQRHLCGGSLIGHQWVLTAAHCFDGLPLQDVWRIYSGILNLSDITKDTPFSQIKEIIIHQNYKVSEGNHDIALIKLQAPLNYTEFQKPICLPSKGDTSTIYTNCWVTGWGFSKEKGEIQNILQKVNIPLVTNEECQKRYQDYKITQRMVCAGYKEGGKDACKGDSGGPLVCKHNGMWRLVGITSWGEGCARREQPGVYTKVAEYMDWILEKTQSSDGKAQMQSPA
purified human plasma kallikrein, sequence (P03952 20-390 partner): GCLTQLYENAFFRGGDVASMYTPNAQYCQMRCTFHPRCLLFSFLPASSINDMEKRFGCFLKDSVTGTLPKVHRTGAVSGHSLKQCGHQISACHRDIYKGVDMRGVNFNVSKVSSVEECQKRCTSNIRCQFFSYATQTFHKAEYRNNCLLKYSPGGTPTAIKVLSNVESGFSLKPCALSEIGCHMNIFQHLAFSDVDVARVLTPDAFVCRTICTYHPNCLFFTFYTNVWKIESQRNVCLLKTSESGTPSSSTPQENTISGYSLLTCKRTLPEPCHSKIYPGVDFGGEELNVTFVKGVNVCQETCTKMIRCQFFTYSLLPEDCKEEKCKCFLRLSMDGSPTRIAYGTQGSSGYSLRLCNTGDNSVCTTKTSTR

[3] = read-out: Factor XIa Ki, measured at 25° C.
[4] = measured at 25° C. (no asterisk)

purified human Factor XIa, sequence (P03951 388-625): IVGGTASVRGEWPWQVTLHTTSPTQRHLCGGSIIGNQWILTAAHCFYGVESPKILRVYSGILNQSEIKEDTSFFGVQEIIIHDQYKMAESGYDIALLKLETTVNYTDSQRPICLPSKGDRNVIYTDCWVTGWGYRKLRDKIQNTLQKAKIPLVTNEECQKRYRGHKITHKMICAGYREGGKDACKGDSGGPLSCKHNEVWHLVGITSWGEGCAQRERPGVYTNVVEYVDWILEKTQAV
purified human Factor XIa, sequence (P03951 19-387 partner): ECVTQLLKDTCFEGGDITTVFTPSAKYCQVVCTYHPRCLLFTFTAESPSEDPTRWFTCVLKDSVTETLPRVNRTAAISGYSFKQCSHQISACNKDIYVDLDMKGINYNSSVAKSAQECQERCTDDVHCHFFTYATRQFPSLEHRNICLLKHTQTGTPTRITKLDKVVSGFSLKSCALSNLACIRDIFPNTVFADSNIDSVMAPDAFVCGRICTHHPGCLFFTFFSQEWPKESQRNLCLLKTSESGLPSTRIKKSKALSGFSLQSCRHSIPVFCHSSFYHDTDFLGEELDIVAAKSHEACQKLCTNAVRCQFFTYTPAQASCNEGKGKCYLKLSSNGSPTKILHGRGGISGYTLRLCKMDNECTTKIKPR

Ki [1, 3] [nM] | Ki [2, 4] [nM] | Ki [1] [nM] | Ki ([2]; measured at 37° C. (*)) [nM] | Structure (SMILES)
< 5 | 2.57 |  |  | CC(C)c1nnc2n1CCN(c1cccc3c1CCN(C(=O)c1cn(-c4cccc(Cl)c4F)nn1)[C@@H]3C(=O)Nc1ccc(C(=O)O)cc1)C2 [Example 66, (S)-4-(2-(1-(3-chloro-2-fluorophenyl)-1H-1,2,3-triazole-4-carbonyl)-5-(3-isopropyl-5,6-dihydro-[1,2,4]triazolo[4,3-a]pyrazin-7(8H)-yl)-1,2,3,4-tetrahydroisoquinoline-1-carboxamido)benzoic acid, TFA salt]
< 5 | 7.17 |  |  | CC1(O)CCN(c2cccc3c2CCN(C(=O)c2cn(-c4cccc(Cl)c4F)nn2)C3C(=O)Nc2ccc(C(=O)O)cc2)CC1 (centres unmarked) [Example 67, 4-(2-(1-(3-chloro-2-fluorophenyl)-1H-1,2,3-triazole-4-carbonyl)-5-(4-hydroxy-4-methylpiperidin-1-yl)-1,2,3,4-tetrahydroisoquinoline-1-carboxamido)benzoic acid, TFA salt]
< 5 | 9.92 |  |  | O=C(O)c1ccc(NC(=O)C2c3cccc(N4CCOCC4=O)c3CCN2C(=O)c2cn(-c3cccc(Cl)c3F)nn2)cc1 (centres unmarked) [Example 69, 4-(2-(1-(3-chloro-2-fluorophenyl)-1H-1,2,3-triazole-4-carbonyl)-5-(3-oxomorpholino)-1,2,3,4-tetrahydroisoquinoline-1-carboxamido)benzoic acid]
913 |  |  | > 6000 | COC1CCN(c2cccc3c2CCN(C(=O)C2CC(=O)N(c4c(F)ccc(Cl)c4F)C2)C3C(=O)Nc2ccc(C(=O)O)cc2)CC1 (centres unmarked) [Example 71, 4-(2-(1-(3-chloro-2,6-difluorophenyl)-5-oxopyrrolidine-3-carbonyl)-5-(4-methoxypiperidin-1-yl)-1,2,3,4-tetrahydroisoquinoline-1-carboxamido)benzoic acid, TFA salt]
< 5 | 13.8 |  |  | O=C(O)c1ccc(NC(=O)C2c3cccc(N4CCC(N5CCCC5=O)CC4)c3CCN2C(=O)c2cn(-c3cccc(Cl)c3F)nn2)cc1 (centres unmarked) [Example 72, 4-(2-(1-(3-chloro-2-fluorophenyl)-1H-1,2,3-triazole-4-carbonyl)-5-(4-(2-oxopyrrolidin-1-yl)piperidin-1-yl)-1,2,3,4-tetrahydroisoquinoline-1-carboxamido)benzoic acid, TFA salt]
< 5 | 27.6 |  |  | O=C(O)c1ccc(NC(=O)C2c3cccc(N4CCC(N5CCCC5=O)CC4)c3CCN2C(=O)c2cnn(-c3cccc(Cl)c3F)c2)cc1 (centres unmarked) [Example 74, 4-(2-(1-(3-chloro-2-fluorophenyl)-1H-pyrazole-4-carbonyl)-5-(4-(2-oxopyrrolidin-1-yl)piperidin-1-yl)-1,2,3,4-tetrahydroisoquinoline-1-carboxamido)benzoic acid, TFA salt]
< 5 | 25.8 |  |  | O=C1CCC2(CCN(c3cccc4c3CCN(C(=O)c3cnn(-c5cccc(Cl)c5F)c3)C4C(=O)Nc3ccc(C(=O)O)cc3)CC2)O1 (centres unmarked) [Example 75, 4-(2-(1-(3-chloro-2-fluorophenyl)-1H-pyrazole-4-carbonyl)-5-(2-oxo-1-oxa-8-azaspiro[4.5]-decan-8-yl)-1,2,3,4-tetrahydroisoquinoline-1-carboxamido)benzoic acid, TFA salt]

Second part, the molecule before the results:

Structure (SMILES) | Ki [1, 3] [nM] | Ki [2, 4] [nM] | Ki [1] [nM] | Ki ([2]; measured at 37° C. (*)) [nM]
COc1cncc(-c2cccc3c2CCN(C(=O)c2cn(-c4cccc(Cl)c4F)nn2)C3C(=O)Nc2ccc(C(=O)O)cc2)c1 (centres unmarked) [Example 36, 4-(2-(1-(3-chloro-2-fluorophenyl)-1H-1,2,3-triazole-4-carbonyl)-5-(5-methoxypyridin-3-yl)-1,2,3,4-tetrahydroisoquinoline-1-carboxamido)benzoic acid, TFA salt] | < 5 | 26.7 |  | 
CNC(=O)c1cncc(-c2cccc3c2CCN(C(=O)c2cn(-c4cccc(Cl)c4F)nn2)C3C(=O)Nc2ccc(C(=O)O)cc2)c1 (centres unmarked) [Example 37, 4-(2-(1-(3-chloro-2-fluorophenyl)-1H-1,2,3-triazole-4-carbonyl)-5-(5-(methylcarbamoyl)pyridin-3-yl)-1,2,3,4-tetrahydroisoquinoline-1-carboxamido)benzoic acid, TFA salt] | < 5 | 12.9 |  | 
Nc1ccc(-c2cccc3c2CCN(C(=O)c2cn(-c4cccc(Cl)c4F)nn2)C3C(=O)Nc2ccc(C(=O)O)cc2)cn1 (centres unmarked) [Example 39, 4-(5-(6-aminopyridin-3-yl)-2-(1-(3-chloro-2-fluorophenyl)-1H-1,2,3-triazole-4-carbonyl)-1,2,3,4-tetrahydroisoquinoline-1-carboxamido)benzoic acid, bis-TFA salt] | < 5 | 2.63 |  | 
O=C(O)c1ccc(NC(=O)C2c3cccc(-c4cn[nH]c4)c3CCN2C(=O)c2cn(-c3cccc(Cl)c3F)nn2)cc1 (centres unmarked) [Example 41, 4-(2-(1-(3-chloro-2-fluorophenyl)-1H-1,2,3-triazole-4-carbonyl)-5-(1H-pyrazol-4-yl)-1,2,3,4-tetrahydroisoquinoline-1-carboxamido)benzoic acid] |  | 7.68 | < 5 | 
Cn1nccc1-c1cccc2c1CCN(C(=O)c1cn(-c3cccc(Cl)c3F)nn1)C2C(=O)Nc1ccc(C(=O)O)cc1 (centres unmarked) [Example 42, 4-(2-(1-(3-chloro-2-fluorophenyl)-1H-1,2,3-triazole-4-carbonyl)-5-(1-methyl-1H-pyrazol-5-yl)-1,2,3,4-tetrahydroisoquinoline-1-carboxamido)benzoic acid] |  | 13.1 | < 5 | 
Cn1ccc(-c2cccc3c2CCN(C(=O)c2cn(-c4cccc(Cl)c4F)nn2)C3C(=O)Nc2ccc(C(=O)O)cc2)n1 (centres unmarked) [Example 43, 4-(2-(1-(3-chloro-2-fluorophenyl)-1H-1,2,3-triazole-4-carbonyl)-5-(1-methyl-1H-pyrazol-3-yl)-1,2,3,4-tetrahydroisoquinoline-1-carboxamido)benzoic acid] |  | 16.2 | < 5 | 
CNC(=O)c1ccc(-c2cccc3c2CCN(C(=O)c2cn(-c4cccc(Cl)c4F)nn2)[C@@H]3C(=O)Nc2ccc(C(=O)O)cc2)cn1 [Example 44, (S)-4-(2-(1-(3-Chloro-2-fluorophenyl)-1H-1,2,3-triazole-4-carbonyl)-5-(6-(methylcarbamoyl)pyridin-3-yl)-1,2,3,4-tetrahydroisoquinoline-1-carboxamido)benzoic acid, TFA salt] | < 5 | 3.28 |  | 
CNC(=O)c1ccc(-c2cccc3c2CCN(C(=O)c2cn(-c4cccc(Cl)c4F)nn2)[C@H]3C(=O)Nc2ccc(C(=O)O)cc2)cn1 [Example 45, (R)-4-(2-(1-(3-Chloro-2-fluorophenyl)-1H-1,2,3-triazole-4-carbonyl)-5-(6-(methylcarbamoyl)pyridin-3-yl)-1,2,3,4-tetrahydroisoquinoline-1-carboxamido)benzoic acid, TFA salt] | 20.6 | 364 |  | 
CN(C)C1CCN(c2cccc3c2CCN(C(=O)c2cn(-c4cccc(Cl)c4F)nn2)[C@H]3C(=O)Nc2ccc(C(=O)O)cc2)CC1 [Example 48, (R)-4-(2-(1-(3-chloro-2-fluorophenyl)-1H-1,2,3-triazole-4-carbonyl)-5-(4-(dimethylamino)piperidin-1-yl)-1,2,3,4-tetrahydroisoquinoline-1-carboxamido)benzoic acid, bis-TFA salt] |  | 452 | 89.6 | 
CN(C)C1CCN(c2cccc3c2CCN(C(=O)c2cnn(-c4cccc(Cl)c4F)c2)C3C(=O)Nc2ccc(C(=O)O)cc2)CC1 (centres unmarked) [Example 50, 4-(2-(1-(3-chloro-2-fluorophenyl)-1H-pyrazole-4-carbonyl)-5-(4-(dimethylamino)piperidin-1-yl)-1,2,3,4-tetrahydroisoquinoline-1-carboxamido)benzoic acid, bis-TFA salt] | < 5 | 4.94 |  | 
CN(C)C1CCN(c2cccc3c2CCN(C(=O)c2cn(-c4cccc(Cl)c4F)cn2)C3C(=O)Nc2ccc(C(=O)O)cc2)CC1 (centres unmarked) [Example 53, 4-(2-(1-(3-chloro-2-fluorophenyl)-1H-imidazole-4-carbonyl)-5-(4-(dimethylamino)piperidin-1-yl)-1,2,3,4-tetrahydroisoquinoline-1-carboxamido)benzoic acid, bis-TFA salt] | < 5 | 1.21 |  | 
CN(C)C(=O)C1CCN(c2cccc3c2CCN(C(=O)c2cn(-c4cccc(Cl)c4F)nn2)C3C(=O)Nc2ccc(C(=O)O)cc2)CC1 (centres unmarked) [Example 56, 4-(2-(1-(3-chloro-2-fluorophenyl)-1H-1,2,3-triazole-4-carbonyl)-5-(4-(dimethylcarbamoyl)piperidin-1-yl)-1,2,3,4-tetrahydroisoquinoline-1-carboxamido)benzoic acid, TFA salt] | < 5 | 5.6 |  | 
CN(C)C(=O)C1CCN(c2cccc3c2CCN(C(=O)c2cnn(-c4cccc(Cl)c4F)c2)C3C(=O)Nc2ccc(C(=O)O)cc2)CC1 (centres unmarked) [Example 59, 4-(2-(1-(3-chloro-2-fluorophenyl)-1H-pyrazole-4-carbonyl)-5-(4-(dimethylcarbamoyl)piperidin-1-yl)-1,2,3,4-tetrahydroisoquinoline-1-carboxamido)benzoic acid, TFA salt] | < 5 | 10.1 |  | 
CC(C)c1nnc2n1CCN(c1cccc3c1CCN(C(=O)c1cn(-c4cccc(Cl)c4F)nn1)C3C(=O)Nc1ccc(C(=O)O)cc1)C2 (centres unmarked) [Example 64, 4-(2-(1-(3-chloro-2-fluorophenyl)-1H-1,2,3-triazole-4-carbonyl)-5-(3-isopropyl-5,6-dihydro-[1,2,4]triazolo[4,3-a]pyrazin-7(8H)-yl)-1,2,3,4-tetrahydroisoquinoline-1-carboxamido)benzoic acid, TFA salt] | < 5 | 4.7 |  | 
CC(C)c1nnc2n1CCN(c1cccc3c1CCN(C(=O)c1cn(-c4cccc(Cl)c4F)nn1)[C@H]3C(=O)Nc1ccc(C(=O)O)cc1)C2 [Example 65, (R)-4-(2-(1-(3-chloro-2-fluorophenyl)-1H-1,2,3-triazole-4-carbonyl)-5-(3-isopropyl-5,6-dihydro-[1,2,4]triazolo[4,3-a]pyrazin-7(8H)-yl)-1,2,3,4-tetrahydroisoquinoline-1-carboximido)benzoic acid, TFA salt] | 18.9 | 260 |  | 
